# Like-named read-outs stand apart in the source and are kept apart here. Where a SMILES comes first, the peptide text is derived from it. The star is where a group is joined. X1 = CC1(C)C(=CC=C2CCCC(C=CC3=[N+](CCCCCC(=O)O)c4ccccc4C3(C)C)=C2*)N(CCCCCC(=O)O)c2ccccc21
# Columns and labels:
# H460 tumour-bearing mice = assay type: in vivo, mouse; details: IV 14 mg/kg; for retention efficiency in tumour up to 48 h post injection: integrated fluorescence in tumour normalized to 1 h, n = 3, repeated three times
# Method: (§1) Animal experiments were performed in accordance with the Guide for the Care and Use of Laboratory Animals and approved by the Institutional Animal Care and Use Committee (IACUC) of the National Center for Nanoscience and Technology (NCNST), China. Female Balb/c nude mice (6–8 weeks, 18–22 g) were purchased from Vital River Laboratory Animal Technology Co. Ltd. H460 cells were subcutaneously implanted into these mice on the right flank. Then the mice were randomly grouped (n = 3). When the tumour grew to a single aspect of about 0.5 cm, we injected the molecules 1, 2 and 3 intravenously in the same dose of 14 mg/kg in PBS solution, respectively. Fluorescence images were measured by a Maestro II in vivo imaging system (CRi) at 1, 2, 4, 6, 8, 12, 24, 48, 72, 96 and 120 h post injection. Further, tumours and other major organs (i.e., heart, liver, spleen, lung and kidney) were collected for ex vivo fluorescence imaging at 48 h post injection. The organ biodistribution of the 1, 2 and 3 was examined using H460 xenografts mice. The mice were sacrificed at 2, 4, 8, 12, 24 or 48 h post injection. Finally, all the major organs and tumour were collected, weighed, and homogenized (0.3 mL of lysis buffer per 100 mg of tissues). The homogeneous tissue solutions were obtained for fluorescence imaging by IVIS Spectrum CT. Known concentrations of compound 1, 2 or 3 are used to make the standard curve (concentration from 2.8 to 25.2 μg/mL), the “Predicted R-Squared” value of 0.99. Then we utilized this standard curve to measure the molecule content in each tissue. In addition, EJ xenograft tumour mice model was built, as above described, to validate the generality of the strategy.
# Supplementary Figure 31∣ Representative NIR fluorescence images of H460 tumour-bearing mice after intravenous administration with molecules 1, 2 and 3 (14 mg/kg, n = 3). Images were acquired at 1 h, 4 h, 12 h, 24 h 48 h, 72 h, 96 h and 120 h post injection (p.i.). The yellow circles marked the same size of the tumour region.
# (§2) (1 picture or pasted object on this page, not shown here)
# Supplementary Figure 32∣ Representative NIR fluorescence images o f H460 tumour-bearing mice after intravenous administrat ed with molecules 1 (14 mg/kg, n = 3) in three groups (In order to test the repeatability of the results, we chose different batches of mice to repeat trials . They were named 1-group, 2-group and 3-group, respectively.). Images were acquired at 1 h, 4 h, 12 h, 24 h 48 h and 72 h post injection (p.i.). All data were obtained by n ormalized fluorescence intensity in tumour. Data are presented as the mean ± s.d. (n= 3).
# [1] = Blood circulation pharmacokinetics; assay type: in vivo, mouse; details: Balb/c mice, IV single dose 14 mg/kg, blood 0.017–6 h, fluorescence spectroscopy, DAS2.0, mean ± s.d. n = 3
# Method: respectively. Cell viability (%) was equal to (Asample - Ablank)/ (Acontrol - Ablank) x 100. All the experiments were performed in triplicate.
# Blood circulation. To investigate the pharmacokinetics of the compound 1, 2 and 3, Balb/c mice were randomly divided into three groups (n = 3). Each group was intravenous (iv) injected with a single dose of 14 mg/kg of compou nd 1, 2 or 3. Blood samples were collected via the orbital venous plexus at 0.017, 0.08 3, 0.25, 0.5, 1, 3, 4 and 6 h post injection and collected into EDTA tubes. The supernatant of the blood samples was collected by centrifugation at 10 000 rpm for 10 min , and the content of compound 1, 2 and 3 in the supernatant w ere determined using fluorescence spectrophotometric measurement. Data for known concentrations of compound 1, 2 or 3 (concentration from 1.2 μM to 25.0 μM) were used to make the standard curve, the “Predicted R-Squared” value of 0.99.
# Preparation and characteristic of liposomes. Liposomes were prepared by a thin lipid film hydration method followed by extrusion. Briefly, PC: CH: DSPE -PEG-NHS = 66: 32: 2 (molar ratio) were dissolved in a chloroform/methanol mixture (4: 1) in a round bottom flask. The lipid film was hydrated with PBS (pH 7.4) after evaporation of the chloroform/methanol solvents. […]
# 3 h. […] Morphologies of liposomes were measured by Tecnai G20 electron microscope.
# [2] = Organ biodistribution from fluorescence of tissue lysates; details: female, Balb/c nude, mouse, in vivo, iv, 14 mg/kg
# Method: as §1
# Supplementary Figure 35∣ Quantitative analysis of the fluorescence intensity. In order to ensure the accuracy of the results, we added a standard solution in every tested 96 -well plate. The fluorescence property of molecules 1, 2 and 3 were identical. We take molecule 1 as example to illustrate the quantitative analysis. a. The top view of fluorescence images of a serial concentration of molecule 1 by Maestro II. The number from 1 to 11 represented 2.8, 5.6, 8.4, 11.2, 14.0, 16.8, 19.6, 22.4, 25.2, 28.0, 35.0 (μg/mL), respectively. The control group represented PBS buffer. b.
# Fluorescence intensity (relative to the background signal) increase d linearly with the concentration […]
# as §2
# Supplementary Figure 36 ∣ Representative NIR fluorescence images of tissue lysates. The molecules 1, 2 and 3 (14 mg/kg, n = 3) on H460 tumour-bearing mice after intravenous administration in three groups. The mice were sacrificed at 2 h, 4 h, 8 h, 12 h, 24 h or 48 h post injection . […] The homogenous tissue solutions were obtained for fluorescence imaging. […]
# H460 cells = assay: Flow cytometry labelling ratio of subcultured cells; assay type: cell-based, human; details: 50 μM, 37 °C, 2 h; for labelling ratio of H460 cells at the third generation: subcultured at 24 h interval
# Method: Supplementary Figure 24∣Flow cytometry histograms of H460 cells treated with molecule 1, 2 and
# 3 (50 μM) at 37 °C for 2 h, respectively, and then subcultured for designated generations (a 24 h
# interval). The untreated H460 cells were used as the control group.
# as §2
# [3] = fluorescence of diluted tissue lysates, mean ± s.d. n = 3, read-out: tumour uptake / accumulation efficiency at 48 h post injection
SMILES,retained tumour signal on the fifth day relative to molecules 2 and 3 (H460 tumour-bearing mice),retention efficiency in tumour up to 48 h post injection (H460 tumour-bearing mice),fluorescence signal retained in tumour on the fifth day (H460 tumour-bearing mice; normalized fluorescence intensity in tumour),blood circulation half-life (t1/2β) [1],"tissue uptake at 48 h [2, 3]","tissue uptake at 48 h ([2]; fluorescence of tissue lysates, mean ± s.d. n = 3, read-out: liver retention at 48 h post injection)",labelling ratio of H460 cells at the first generation (H460 cells; compared to untreated cells),labelling ratio of H460 cells at the third generation (H460 cells)
CC[C@H](C)[C@H](NC(=O)[C@@H]1CCCN1C(=O)[C@@H](NC(=O)[C@H](C)N)C(C)C)C(=O)N[C@@H](C)C(=O)N[C@@H](CCC(N)=O)C(=O)N[C@@H](CCCCN)C(=O)N[C@@H](CC(=O)O)C(=O)N[C@@H](CCC(=O)O)C(=O)N[C@H](C(=O)N[C@@H](CC(=O)O)C(=O)N[C@@H](CCCCN)C(=O)N[C@@H](CC(C)C)C(=O)N[C@H](C(=O)N[C@@H](Cc1ccccc1)C(=O)N[C@@H](Cc1ccccc1)C(=O)N[C@@H](C)C(=O)N[C@@H](CCC(=O)O)C(=O)N[C@@H](CSC1=C(C=CC2=[N+](CCCCCC(=O)O)c3ccccc3C2(C)C)CCCC1=CC=C1N(CCCCCC(=O)O)c2ccccc2C1(C)C)C(=O)NCC(=O)O)C(C)C)C(C)C [molecule 1] (H-AVPIAQKDEVDKLVFFAEC(X1)G-OH),~2.5 fold,approximately 22.0%,over 16.0%,1.15 ± 0.10 h,9.2 ± 0.5 %ID/g,4.1 ± 0.2 %ID/g,100%,above 16.4%
CSCC[C@H](N)C(=O)N[C@@H](CC(=O)O)C(=O)N[C@@H](CCC(=O)O)C(=O)N[C@@H](CCCCN)C(=O)N[C@@H](C)C(=O)N[C@@H](CCC(N)=O)C(=O)N[C@@H](CCCCN)C(=O)N[C@@H](CC(=O)O)C(=O)N[C@@H](CCC(=O)O)C(=O)N[C@H](C(=O)N[C@@H](CC(=O)O)C(=O)N[C@@H](CCCCN)C(=O)N[C@@H](CC(C)C)C(=O)N[C@H](C(=O)N[C@@H](Cc1ccccc1)C(=O)N[C@@H](Cc1ccccc1)C(=O)N[C@@H](C)C(=O)N[C@@H](CCC(=O)O)C(=O)N[C@@H](CSC1=C(C=CC2=[N+](CCCCCC(=O)O)c3ccccc3C2(C)C)CCCC1=CC=C1N(CCCCCC(=O)O)c2ccccc2C1(C)C)C(=O)NCC(=O)O)C(C)C)C(C)C [molecule 2] (H-MDEKAQKDEVDKLVFFAEC(X1)G-OH; N-terminus assumed),–,less than 10.0%,–,–,4.2 ± 0.1 %ID/g,–,–,6.83%
CC[C@H](C)[C@H](NC(=O)[C@@H]1CCCN1C(=O)[C@@H](NC(=O)[C@H](C)N)C(C)C)C(=O)N[C@@H](C)C(=O)N[C@@H](CCC(N)=O)C(=O)N[C@@H](CCCCN)C(=O)N[C@@H](CC(=O)O)C(=O)N[C@@H](CCC(=O)O)C(=O)N[C@H](C(=O)N[C@@H](CC(=O)O)C(=O)N[C@@H](CCC(=O)O)C(=O)N[C@@H](CSC1=C(C=CC2=[N+](CCCCCC(=O)O)c3ccccc3C2(C)C)CCCC1=CC=C1N(CCCCCC(=O)O)c2ccccc2C1(C)C)C(=O)NCC(=O)O)C(C)C [molecule 3] (H-AVPIAQKDEVDEC(X1)G-OH; N-terminus assumed),–,less than 10.0%,–,1.06 ± 0.17 h,5.3 ± 0.8 %ID/g,–,–,3.89%

# From article PMC6813295, “A tumour-selective cascade activatable self-detained system for drug delivery and cancer imaging” (Nature Communications, 2019)
